Source: paper PMC3684073 (Journal of agricultural and food chemistry, 2008)
Like-named read-outs stand apart in the source and are kept apart here.

How the values were obtained:
5-HT7 receptor [1] = biological target: T1, 5-HT7 receptor (Homo sapiens, UniProt P34969); assay: 5-HT7 receptor competitive binding assay; details: for 5-HT7 competitive binding % Inhibition ± SD: tested at 50 μM, NA = not active
5-HT5A = 5-HT5A (Homo sapiens, UniProt P47898); assay: MDS Pharma serotonin receptor binding, 5-HT5A
5-HT1B = 5-HT1B (Rattus norvegicus, UniProt P28564); assay: MDS Pharma serotonin receptor binding, 5-HT1B
5-HT1A = biological target: T2, 5-HT1A (Homo sapiens, UniProt P08908); assay: MDS Pharma serotonin receptor binding, 5-HT1A
T2 sequence (P08908 1-422): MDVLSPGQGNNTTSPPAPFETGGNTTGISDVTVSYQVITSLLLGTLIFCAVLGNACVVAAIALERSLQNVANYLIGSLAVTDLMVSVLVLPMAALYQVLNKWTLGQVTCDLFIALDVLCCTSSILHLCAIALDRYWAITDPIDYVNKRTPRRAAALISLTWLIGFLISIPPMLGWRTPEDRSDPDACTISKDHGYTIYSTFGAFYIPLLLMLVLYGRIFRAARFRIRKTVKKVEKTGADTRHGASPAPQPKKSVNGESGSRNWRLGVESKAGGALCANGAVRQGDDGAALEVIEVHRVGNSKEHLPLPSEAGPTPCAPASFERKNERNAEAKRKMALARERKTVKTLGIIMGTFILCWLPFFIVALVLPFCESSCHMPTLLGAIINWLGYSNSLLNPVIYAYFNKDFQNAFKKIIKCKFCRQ

5-HT7 receptor [2] = biological target: T1, 5-HT7 receptor; assay: Intracellular cAMP assay in 5-HT7-transfected HEK293 cells; format: cell-based
5-HT4 = 5-HT4 (Cavia porcellus, UniProt O70528); assay: MDS Pharma serotonin receptor binding, 5-HT4
[3] = biological target: human serotonin transporter (hSERT) (Homo sapiens, UniProt P31645); assay: cell-based
5-HT3 = biological target: T3, 5-HT3 (Homo sapiens, UniProt P46098); assay: MDS Pharma serotonin receptor binding, 5-HT3
T3 sequence (P46098 24-478): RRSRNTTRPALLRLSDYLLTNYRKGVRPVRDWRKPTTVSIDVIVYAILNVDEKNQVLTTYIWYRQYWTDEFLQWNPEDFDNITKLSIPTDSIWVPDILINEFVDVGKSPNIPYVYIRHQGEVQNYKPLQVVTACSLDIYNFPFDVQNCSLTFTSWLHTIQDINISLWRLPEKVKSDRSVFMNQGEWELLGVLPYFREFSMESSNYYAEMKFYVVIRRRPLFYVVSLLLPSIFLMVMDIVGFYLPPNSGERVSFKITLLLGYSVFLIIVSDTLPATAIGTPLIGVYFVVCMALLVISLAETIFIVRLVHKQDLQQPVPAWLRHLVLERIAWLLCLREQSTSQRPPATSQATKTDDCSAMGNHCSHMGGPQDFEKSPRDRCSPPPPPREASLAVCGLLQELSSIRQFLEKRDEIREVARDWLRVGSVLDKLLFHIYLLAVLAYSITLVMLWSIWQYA

5-HT2B = 5-HT2B (Homo sapiens, UniProt P41595); assay: MDS Pharma serotonin receptor binding, 5-HT2B
5-HT2C = biological target: T4, 5-HT2C (Homo sapiens, UniProt P28335); assay: MDS Pharma serotonin receptor binding, 5-HT2C
T4 sequence (P28335 33-458): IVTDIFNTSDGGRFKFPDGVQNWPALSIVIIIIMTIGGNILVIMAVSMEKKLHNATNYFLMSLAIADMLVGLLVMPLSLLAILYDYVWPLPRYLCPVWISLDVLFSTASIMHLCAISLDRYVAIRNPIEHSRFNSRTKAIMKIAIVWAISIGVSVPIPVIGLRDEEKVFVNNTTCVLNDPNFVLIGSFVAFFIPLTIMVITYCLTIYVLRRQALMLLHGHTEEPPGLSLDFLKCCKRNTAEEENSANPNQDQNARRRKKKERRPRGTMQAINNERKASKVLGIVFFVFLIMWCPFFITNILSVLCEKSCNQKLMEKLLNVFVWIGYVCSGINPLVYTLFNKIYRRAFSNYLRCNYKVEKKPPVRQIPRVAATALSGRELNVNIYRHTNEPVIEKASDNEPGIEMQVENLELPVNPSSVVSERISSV

5-HT6 = 5-HT6 (Homo sapiens, UniProt P50406); assay: MDS Pharma serotonin receptor binding, 5-HT6
[4] = read-out: 5-HT7 receptor binding IC50, pure compounds

CC(=O)O[C@@H]1C[C@@]23C[C@@]24CC[C@H](O[C@@H]2OC[C@@H](O)[C@H](O)[C@H]2O)C(C)(C)[C@@H]4CC[C@H]3[C@]2(C)C[C@@H]3O[C@@]4(C[C@@H](C)[C@@H]3[C@@]12C)OC[C@@]1(C)O[C@@H]41 [23-epi-26-deoxyactein]
IC50 (5-HT7 receptor [1]; [4]): ≥ 100000 nM

COc1ccc(/C=C/C(=O)O[C@H](C(=O)O)[C@](O)(Cc2ccc(O)cc2)C(=O)O)cc1O [Cimicifugic acid F, cimicifugic acid F]
IC50 (5-HT7 receptor [1]): > 500000 nM

CC(=O)O[C@@H]1CO[C@@H](O[C@H]2CC[C@]34C[C@]35C[C@@H](OC(C)=O)[C@]3(C)[C@H]6[C@H](C)C[C@]7(OC(O)[C@]8(C)O[C@H]78)O[C@H]6C[C@@]3(C)[C@@H]5CC[C@H]4C2(C)C)[C@H](O)[C@H]1O (stereo partly drawn) [Cimiracemoside O]
5-HT7 competitive binding % Inhibition ± SD (5-HT7 receptor [1]): 19 ± 5%

O=C(/C=C/c1ccc(O)c(O)c1)O[C@H](C(=O)O)[C@](O)(Cc1ccc(O)c(O)c1)C(=O)O [fukinolic acid]
IC50 (5-HT7 receptor [1]): 100000 nM

23-O-acetylshengmanol-3-β-D-xyloside
5-HT7 competitive binding % Inhibition ± SD (5-HT7 receptor [1]): 35 ± 10%

COc1ccc(/C=C/C(=O)O[C@H](C(=O)O)[C@](O)(Cc2ccc(O)c(O)c2)C(=O)O)cc1O [Cimicifugic acid B, cimicifugic acid B]
IC50 (5-HT7 receptor [1]): > 500000 nM

CNCCc1c[nH]c2ccc(O)cc12 [Nω-methylserotonin, 3-(2-Methylaminoethyl)indol-5-ol]
IC50 (5-HT5A): 289 nM | IC50 (5-HT1B): 15 nM | IC50 (5-HT1A): 2 nM | EC50 (5-HT7 receptor [2]): 22 nM | maximum cAMP induction (5-HT7 receptor [2]; at 100 nM, the highest tested concentration): 43 pmol/mL | IC50 (5-HT4): 6700 nM | IC50 [3]: 490 nM | IC50 (5-HT3): 1670 nM | IC50 (5-HT2B): 97 nM | IC50 (5-HT2C): 101 nM | IC50 (5-HT7 receptor [1]; 5-HT7 receptor binding IC50): 0.023 nM | IC50 (5-HT7 receptor [1]; IC50, 5-HT7, triplicate in three independent experiments): 0.02 nM | IC50 (5-HT6): 55 nM

COc1cc(/C=C/C(=O)O[C@H](C(=O)O)[C@](O)(Cc2ccc(O)cc2)C(=O)O)ccc1O [Cimicifugic acid E, cimicifugic acid E]
IC50 (5-HT7 receptor [1]): > 500000 nM

COc1cc(/C=C/C(=O)O[C@H](C(=O)O)[C@](O)(Cc2ccc(O)c(O)c2)C(=O)O)ccc1O [Cimicifugic acid A, cimicifugic acid A]
IC50 (5-HT7 receptor [1]): > 500000 nM

25-anhydrocimigenol-3-O- β-xyloside
5-HT7 competitive binding % Inhibition ± SD (5-HT7 receptor [1]): 31 ± 8%

Actein (R,S)
IC50 (5-HT7 receptor [1]; [4]): ≥ 100000 nM

CC(=O)O[C@@H]1C[C@@]23C[C@@]24CC[C@H](O[C@@H]2OC[C@H](O)[C@H](O)[C@H]2O)C(C)(C)[C@@H]4CC[C@H]3[C@]2(C)C[C@@H]3O[C@]4(C[C@@H](C)[C@@H]3[C@@]12C)OC[C@]1(C)O[C@H]41 [Cimiracemoside N]
5-HT7 competitive binding % Inhibition ± SD (5-HT7 receptor [1]): 18 ± 4%

CC(=O)O[C@@H]1C[C@@]23C[C@@]24CC[C@H](O[C@@H]2OC[C@@H](O)[C@H](O)[C@H]2O)C(C)(C)[C@@H]4CC[C@H]3[C@]2(C)C[C@@H]3O[C@]4(C[C@@H](C)[C@@H]3[C@@]12C)OC[C@@]1(C)O[C@@H]41 [26-deoxyactein]
IC50 (5-HT7 receptor [1]; [4]): ≥ 100000 nM | 5-HT7 competitive binding % Inhibition ± SD (5-HT7 receptor [1]): 38 ± 4%
